Source: US9481648B2, “Kinase inhibitors” (Respivert Limited, priority 2013, dated 2016)
Like-named read-outs stand apart in the source and are kept apart here.

Tests used:
[1] = test system: β-catenin in d-U937 cells; experiment: Accumulation of β catenin in d-U937 cells (assay m); type: cell-based, human
Outline: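 U937 cells were differentiated with PMA (100 ng/mL) for 48–72 hr, then treated with compound or vehicle for 18 hr. After formaldehyde fixation, β-catenin was detected with a primary antibody and an HRP secondary using TMB (OD450–655). Signal was normalised to crystal violet cell staining (OD595).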

[2] = Hydrolytic stability study; type: physicochemical; details: DMSO:water (3:1), 1 mg/mL
Method: Chemical stability of compounds of the invention was assessed in a mixture of DMSO and water (3:1) at a test compound concentration of 1 mg/mL
Sample Preparation • A 1.0 mg sample of test compound was dissolved in 750 μL of DMSO. Water (250 μL) was added slowly, ensuring no precipitation occurred.
Recording Stability • A 50 μL aliquot of the test solution was removed and analysed in duplicate by 5 μL HPLC injections. The peak area for the test compound was recorded following manual integration of the corresponding UV trace. • The test solution was heated to 60° C., with stirring, and 50 μL aliquots removed for HPLC analysis at 5 and 24 h timepoints.

[3] = test system: endotoxin (LPS)-induced uveitis in Lewis rats; experiment: Endotoxin-induced uveitis in rats (in vivo vi); parameters: species or system rat; details: for IL-1β Anterior / IL-1β Posterior / IL-6 Anterior / IL-6 Posterior / MCP-1 Anterior / MCP-1 Posterior: eyes of LPS-stimulated rats, 1 mg/mL; for cytokine levels in both the anterior and posterior segments of the eyes: rats treated with intravitreal endotoxin LPS, topical dosing
Method: Male, Lewis rats (6-8 weeks old, Charles River UK Limited) are housed in cages of 3 at 19-21° C. with a 12 h light/dark cycle (07:00/19:00) and fed a standard diet of rodent chow and water ad libitum. Non-fasted rats are weighed, individually identified on the tail with a permanent marker, and receive a single intravitreal administration into the right vitreous humor (5 μL dose volume) of 100 ng/animal of LPS (Escherichia coli 0111:B4 prepared in PBS, Sigma Aldrich, UK) using a 32-gauge needle. Untreated rats are injected with PBS. […] Following euthanasia, the right eye of each animal is enucleated and dissected into front (anterior) and back (posterior) sections around the lens. Each section is weighed and homogenised in 500 μL of sterile phosphate buffered saline followed by 20 minutes centrifugation at 12000 rpm at 4° C.

[4] = Human hepatocyte stability test; type: in vitro ADME; details: human hepatocytes; for hepatocyte CLint: read-out: Mean intrinsic clearance
Method: (§1) Assessment of certain in vitro ADME (absorption, distribution, metabolism, and excretion) parameters for certain compounds of the invention was conducted by BioFocus (Saffron Walden, UK).

CYP2C9 = CYP2C9 (Homo sapiens (Human), UniProt P11712); experiment: CYP2C9 inhibition study; type: in vitro ADME; details: for inhibition at 15 µM: human, read-out: 15 μM % Inh
CYP2C9, sequence (P11712 whole entry): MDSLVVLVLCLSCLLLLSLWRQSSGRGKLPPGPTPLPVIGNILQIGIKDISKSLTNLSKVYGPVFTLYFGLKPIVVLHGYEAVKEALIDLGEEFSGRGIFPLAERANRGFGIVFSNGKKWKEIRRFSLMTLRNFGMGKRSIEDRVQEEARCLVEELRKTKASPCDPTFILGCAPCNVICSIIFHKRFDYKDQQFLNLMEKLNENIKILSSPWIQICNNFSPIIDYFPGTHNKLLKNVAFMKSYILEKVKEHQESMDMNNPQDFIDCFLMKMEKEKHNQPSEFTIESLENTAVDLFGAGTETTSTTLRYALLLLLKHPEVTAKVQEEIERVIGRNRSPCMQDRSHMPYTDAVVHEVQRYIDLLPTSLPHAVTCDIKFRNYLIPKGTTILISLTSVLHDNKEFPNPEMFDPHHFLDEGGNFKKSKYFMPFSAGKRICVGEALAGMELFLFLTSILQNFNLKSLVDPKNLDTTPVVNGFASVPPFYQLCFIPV
Method: as §1

[5] = test system: adoptive transfer (CD45RBhigh cells) colitis in SCID mice; experiment: Adoptive transfer in mice (in vivo v); parameters: species or system mouse; details: for % Inhibition (of the induction window between naïve and vehicle animals): colon weight:length
Method: On Study day 0, female Balb/C mice are terminated and spleens obtained for CD45RB^high cell isolation (Using SCID IBD cell Separation protocol). Approximately 4×10^5 cells/mL CD45RB^high cells are then injected intraperitoneally (100 μL/mouse) into female SCID animals. On study day 14, mice are weighed and randomized into treatment groups based on body weight. On Day 14, compounds are administered BID, via oral gavage, in a peanut oil vehicle at the dose levels outlined below in Tables 6a and 6b and a dose volume of 5 mL/kg. Treatment continues until study day 42, at which point the animals are necropsied 4 hours after the morning administration. The colon length and weight are recorded and used as a secondary endpoint in the study as a measurement of colon oedema. The colon is then divided into six cross-sections, four of which are used for histopathology scoring (primary endpoint) and two are homogenised for cytokine analysis. Data shown is the % inhibition of the induction window between naïve animals and vehicle animals, where higher inhibition implies closer to the non-diseased, naïve, phenotype.

[6] = test system: Salmonella typhimurium strain TA98; experiment: Mutagenicity assessment (bacterial reverse mutation screen); type: cell-based; details: strain TA98, presence or absence of S-9 mix, up to 1000 μg/plate analysable
Method: (§2) Studies were conducted by Sequani (Ledbury, Herefordshire, UK) to assess compounds of the invention for their ability to induce mutations in two histidine dependent auxotrophic mutants of Salmonella typhimurium, strains TA98 and TA100 in vitro.
(§3) The mutation screen was conducted using the plate incorporation method and was performed in both the presence and absence of S-9 mix (a liver post-mitochondrial fraction derived from the livers of Aroclor 1254 treated rats). The bacteria were exposed to test compounds dissolved in dimethylsulphoxide, which solvent was also used as the negative control. The dose levels used were 0.32, 1.6, 8, 40, 200, 1000 or 5000 μg/plate.
(§4) Precipitation was also noted in both strains at 1000 μg/plate in the presence and absence of S-9 mix.

[7] = test system: Salmonella typhimurium strain TA100; experiment: as above; type: cell-based; details: strain TA100, presence or absence of S-9 mix, up to 1000 μg/plate analysable
Method: as §2, §3, §4

[8] = 1 mg/kg, adoptive transfer mouse model

COCCOCCOCCOc1cc(Nc2nccc(Oc3ccc(NC(=O)Nc4cc(C(C)(C)C)cc(NS(C)(=O)=O)c4OC)c4ccccc34)n2)cc(OC)c1 [Example 4, N-(5-(tert-Butyl)-2-methoxy-3-(3-(4-((2-((3-methoxy-5-(2-(2-(2-methoxyethoxy)ethoxy)-ethoxy)phenyl)amino)pyrimidin-4-yl)oxy)naphthalen-1-yl)ureido)phenyl)methanesulfonamide]
% β-catenin induction ([1]; test compound 1 μg/mL): 3% | % β-catenin induction ([1]; test compound 5 μg/mL): 20% | % β-catenin induction ([1]; test compound 10 μg/mL): 20% | % Parent Remaining ([2]; 0 min): 100% | % Parent Remaining ([2]; 60° C., 300 min): 103% | % Parent Remaining ([2]; 60° C., 1440 min): 102% | IL-1β Anterior ([3]; Table 7a): 20.3 ± 18.9 pg/mL | IL-1β Posterior ([3]; Table 7a): 7.6 ± 7.6 pg/mL | IL-6 Anterior ([3]; Table 7a): 642.3 ± 48.9 pg/mL | IL-6 Posterior ([3]; Table 7a): 897.9 ± 120.3 pg/mL | MCP-1 Anterior ([3]; Table 7a): 0 ± 0 pg/mL | MCP-1 Posterior ([3]; Table 7a): 1.0 ± 1.0 pg/mL | cytokine levels in both the anterior and posterior segments of the eyes [3]: significantly reduced | half-life [4]: 48 min | hepatocyte CLint [4]: 29 µL/min/1e6 cells | IC50 (CYP2C9; CYP2C9, 0 min preincubation): > 15 µM | IC50 (CYP2C9; CYP2C9, 30 min preincubation): > 15 µM | inhibition at 15 µM (CYP2C9; CYP2C9, 0 min preincubation): 24% | inhibition at 15 µM (CYP2C9; CYP2C9, 30 min preincubation): 41% | Colon weight:length ([5]; 0.3 mg/kg BID oral gavage, adoptive transfer mouse model): 0.030 ± 0.008 | % Inhibition (of the induction window between naïve and vehicle animals) ([5]; 0.3 mg/kg BID oral gavage): 62% | Colon weight:length ([5]; 1 mg/kg BID oral gavage, adoptive transfer mouse model): 0.020 ± 0.002 | % Inhibition (of the induction window between naïve and vehicle animals) ([5]; 1 mg/kg BID oral gavage): 110% | IFNγ level in colon tissue [5, 8]: 2.8 ± 0.8 pg/mL | IL-8 level in colon tissue [5, 8]: 53.3 ± 23.0 pg/mL | levels of pro-inflammatory cytokines in samples of colon tissue ([5]; adoptive transfer mouse model): significantly reduced | increases in revertant colonies [6]: no dose-related or statistically significant increases | increases in revertant colonies [7]: no dose-related or statistically significant increases

C#Cc1cc(Nc2nccc(Oc3ccc(NC(=O)Nc4cc(C(C)(C)C)cc(NS(C)(=O)=O)c4OC)c4ccccc34)n2)cc(C(=O)NCCOCCOCCOC)c1 [Example 16]
% Parent Remaining ([2]; 0 min): 100% | % Parent Remaining ([2]; 60° C., 300 min): 100% | % Parent Remaining ([2]; 60° C., 1440 min): 100% | activity in T cell driven in vivo model of colonic inflammation (relative ratios of colon weight to length) ([5]; adoptive transfer mouse model): significant activity | levels of pro-inflammatory cytokines in samples of colon tissue ([5]; adoptive transfer mouse model): significantly reduced | increases in revertant colonies [6]: no dose-related or statistically significant increases | increases in revertant colonies [7]: no dose-related or statistically significant increases

COc1c(NC(=O)Nc2ccc(Oc3ccnc(Nc4ccccc4)c3)c3ccccc23)cc(C(C)(C)C)cc1C(=O)NC1COC1 [Example 75, 5-(tert-Butyl)-2-methoxy-N-(oxetan-3-yl)-3-(3-(4-((2-(phenylamino)pyridin-4-yl)oxy)-naphthalen-1-yl)ureido)benzamide]
% β-catenin induction ([1]; test compound 1 μg/mL): 3% | % β-catenin induction ([1]; test compound 5 μg/mL): 25% | % β-catenin induction ([1]; test compound 10 μg/mL): 30% | % Parent Remaining ([2]; 0 min): 100% | % Parent Remaining ([2]; 60° C., 300 min): 101% | % Parent Remaining ([2]; 60° C., 1440 min): 99% | IL-1β Anterior ([3]; Table 7b): 570 ± 146 pg/mL | IL-1β Posterior ([3]; Table 7b): 414 ± 97 pg/mL | IL-6 Anterior ([3]; Table 7b): 393 ± 118 pg/mL | IL-6 Posterior ([3]; Table 7b): 489 ± 119 pg/mL | MCP-1 Anterior ([3]; Table 7b): 239 ± 82 pg/mL | MCP-1 Posterior ([3]; Table 7b): 279 ± 83 pg/mL | cytokine levels in both the anterior and posterior segments of the eyes [3]: significantly reduced | half-life [4]: > 200 min | hepatocyte CLint [4]: < 7 µL/min/1e6 cells | IC50 (CYP2C9; CYP2C9, 0 min preincubation): > 15 µM | IC50 (CYP2C9; CYP2C9, 30 min preincubation): > 15 µM | inhibition at 15 µM (CYP2C9; CYP2C9, 0 min preincubation): 20% | inhibition at 15 µM (CYP2C9; CYP2C9, 30 min preincubation): 36% | increases in revertant colonies [6]: no dose-related or statistically significant increases | increases in revertant colonies [7]: no dose-related or statistically significant increases

COCCOCCOCCNC(=O)c1cc(Nc2cc(Oc3ccc(NC(=O)Nc4cc(C(C)(C)C)cc(NS(C)(=O)=O)c4OC)c4ccccc34)ccn2)cc(OC)c1 [Example 3, 3-((4-((4-(3-(5-(tert-Butyl)-2-methoxy-3-(methylsulfonamido)phenyl)ureido)naphthalen-1-yl)oxy)pyridin-2-yl)amino)-5-methoxy-N-(2-(2-(2-methoxyethoxy)ethoxy)ethyl)benzamide]
% β-catenin induction ([1]; test compound 1 μg/mL): 0% | % β-catenin induction ([1]; test compound 5 μg/mL): 4% | % β-catenin induction ([1]; test compound 10 μg/mL): 4% | half-life [4]: 36 min | hepatocyte CLint [4]: 39 µL/min/1e6 cells | activity in T cell driven in vivo model of colonic inflammation (relative ratios of colon weight to length) ([5]; adoptive transfer mouse model): significant activity | Colon weight:length ([5]; adoptive transfer mouse model, 3 mg/kg BID oral): 0.039 ± 0.003
